From paper PMC10517971, “An inverse agonist of orphan receptor GPR61 acts by a G protein-competitive allosteric mechanism” (Nature Communications, 2023)
Values joined by “and” are separate entries in the source; they are usually repeats but may differ in a detail not shown here. Equal values may be shown once. Read-outs that look alike come from different tables or passages of the source.

What was measured:
Human PDE7B = Human PDE7B (Homo sapiens, UniProt Q9NP56); test: Phosphodiesterase Assay (SPA); type: biochemical
Sequence of Human PDE7B (Q9NP56 whole entry): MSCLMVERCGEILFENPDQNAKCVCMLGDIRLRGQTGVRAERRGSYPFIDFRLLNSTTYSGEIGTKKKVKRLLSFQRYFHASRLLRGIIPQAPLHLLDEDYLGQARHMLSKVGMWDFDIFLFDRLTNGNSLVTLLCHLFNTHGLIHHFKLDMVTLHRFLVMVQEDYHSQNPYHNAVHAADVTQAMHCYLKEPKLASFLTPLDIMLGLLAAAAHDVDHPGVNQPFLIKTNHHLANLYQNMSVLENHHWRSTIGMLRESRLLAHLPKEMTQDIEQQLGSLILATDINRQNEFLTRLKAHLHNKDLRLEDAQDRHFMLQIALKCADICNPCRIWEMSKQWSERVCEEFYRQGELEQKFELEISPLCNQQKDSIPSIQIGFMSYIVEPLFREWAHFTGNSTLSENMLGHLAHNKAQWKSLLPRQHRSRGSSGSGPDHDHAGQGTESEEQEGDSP

Human PDE11A4 = Human PDE11A4 (Homo sapiens, UniProt Q9HCR9); test: Phosphodiesterase Assay (SPA); type: biochemical
Sequence of Human PDE11A4 (Q9HCR9 whole entry): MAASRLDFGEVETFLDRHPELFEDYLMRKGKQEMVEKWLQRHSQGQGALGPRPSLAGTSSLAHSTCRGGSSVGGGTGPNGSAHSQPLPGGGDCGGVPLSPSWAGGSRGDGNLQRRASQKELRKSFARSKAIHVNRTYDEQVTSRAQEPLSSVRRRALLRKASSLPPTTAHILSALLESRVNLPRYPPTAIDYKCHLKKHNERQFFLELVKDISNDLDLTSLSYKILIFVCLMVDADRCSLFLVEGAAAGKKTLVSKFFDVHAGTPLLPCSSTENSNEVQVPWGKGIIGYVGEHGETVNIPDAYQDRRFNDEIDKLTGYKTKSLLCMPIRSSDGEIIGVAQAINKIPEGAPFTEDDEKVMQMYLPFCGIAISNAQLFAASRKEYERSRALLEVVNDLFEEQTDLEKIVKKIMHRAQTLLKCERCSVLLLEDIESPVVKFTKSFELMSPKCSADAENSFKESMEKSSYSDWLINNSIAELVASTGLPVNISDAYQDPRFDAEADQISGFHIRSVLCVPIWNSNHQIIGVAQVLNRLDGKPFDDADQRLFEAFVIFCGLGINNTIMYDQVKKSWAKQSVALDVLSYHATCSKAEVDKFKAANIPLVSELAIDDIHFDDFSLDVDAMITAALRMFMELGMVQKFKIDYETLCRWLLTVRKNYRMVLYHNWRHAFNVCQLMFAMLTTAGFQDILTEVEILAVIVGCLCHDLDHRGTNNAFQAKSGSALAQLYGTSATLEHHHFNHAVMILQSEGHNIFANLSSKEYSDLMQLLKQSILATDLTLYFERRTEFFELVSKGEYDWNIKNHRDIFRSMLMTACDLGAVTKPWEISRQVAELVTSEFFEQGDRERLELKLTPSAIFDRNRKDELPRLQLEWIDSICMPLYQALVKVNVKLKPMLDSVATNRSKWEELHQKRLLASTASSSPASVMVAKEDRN

human GPR61 = molecular target: T1, human GPR61 (Homo sapiens, UniProt Q9BZJ8); test: Functional cAMP assay (HTRF), transiently transfected CHO-K1 cells, wild-type GPR61 (untagged and HiBit-tagged); type: cell-based; design: key to cAMP response (Figure 3e source data): nM cAMP per well, from standard curve
T1 construct: expressed in transfected cells; host or cells: CHO-K1, transient (Fugene6)
T1 sequence (Q9BZJ8 whole entry): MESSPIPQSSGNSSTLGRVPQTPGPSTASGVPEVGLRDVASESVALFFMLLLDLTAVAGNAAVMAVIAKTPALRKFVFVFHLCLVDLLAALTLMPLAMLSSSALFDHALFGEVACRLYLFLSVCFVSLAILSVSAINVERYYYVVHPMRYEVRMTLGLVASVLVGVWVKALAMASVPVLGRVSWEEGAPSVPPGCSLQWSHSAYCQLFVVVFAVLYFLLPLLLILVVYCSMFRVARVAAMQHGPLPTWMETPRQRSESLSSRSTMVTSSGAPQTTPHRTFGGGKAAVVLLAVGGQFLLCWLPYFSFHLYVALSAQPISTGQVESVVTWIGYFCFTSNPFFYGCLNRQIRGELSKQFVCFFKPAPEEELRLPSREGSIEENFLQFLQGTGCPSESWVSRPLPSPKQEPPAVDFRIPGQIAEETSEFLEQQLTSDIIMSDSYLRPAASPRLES
Text: The human GPR61 (reference sequence NM_031936.4) cDNA was synthesized and subcloned into pcDNA5/FRT/TO (Thermo Fisher, Pittsburgh, PA). The pcDNA5/FRT/TO/ human GPR61 plasmid was then transfected into the Flp-In™-CHO Cell Line (Thermo Fisher, Pittsburgh, PA) and a doxycycline-inducible clonal cell line was selected (CHO TREx hGPR61 WT). Sequences encoding untagged and HiBit/hemagglutinin (HA)-tagged versions of the wild-type human GPR61 were synthesized and cloned into pcDNA3.1. The HiBit ([…]) and HA ([…]) tags were sequentially included after the N-terminal initiator methionine. Four single amino acid substitutions (N137A, R140A, V288A, N345A) were then introduced in the untagged and tagged human GPR61 constructs using site-specific mutagenesis. The nucleotide sequences of all receptor constructs were confirmed by automated DNA sequencing.
Parental CHO-K1 cells were maintained at 37 °C in a humidified environment (5% CO2) and grown in Dulbecco’s Modified Eagle Medium (DMEM) F-12 media (Gibco, 11320033) supplemented with 10% FBS, 1% Glutamax (Gibco, 35050061) and 100units/ml penicillin and streptomycin (Gibco, 15140122. Cells were dissociated using a cell dissociation solution (Gibco, 13151-014), counted, and resuspended in complete culture media without antibiotics. Cells were then transiently transfected using Fugene6 (Promega) in a 384-well plate format (Corning, 3570). For each well, 7500 cells were transfected with 5 ng of receptor plasmid, 20 ng of carrier DNA (Promega, PAE4881) and 0.075 μl Fugene6 in a final volume of 25 μl. Fugene6 and DNA were separately diluted in Optimem media (Gibco, 31985070) (1.25 μl final volume each). Fugene6 and DNA solutions were then combined and incubated for 15 min at room temperature. The cell containing solution (22.5 μl) was then added and transfection reactions were mixed and transferred to the assay plate. Following 24 h incubation at 37 °C, wells were rinsed once and 25 μl of HiBit assay buffer (Phenol-red free DMEM F-12 media containing 2% FBS) was added per well. Surface and total receptor expression was measured separately by adding 25 μl per well of the extracellular (Promega, PRN2421) and lytic (Promega, PRN3040) assay solutions, respectively. Plates were incubated for 10 min at room temperature on a shaker and luciferase activity was measured using an EnVision plate reader (Perkin Elmer, Chicago, IL). Expression was normalized as percent of the wild-type receptor signal. Statistical comparisons of expression levels observed with WT versus GPR61 mutants were made by one-way analysis of variance with Dunnett’s post hoc test.
A homogeneous Time-Resolved Fluorescence (HTRF) assay (Perkin Elmer, Dynamic2 kit #) was used to assess receptor basal and inverse agonist activity at human GPR61, GPR62, and GPR101. For routine inverse agonist screening frozen CHO TREx human GPR61, GPR62 and GPR101 cells were used. Cells were thawed, resuspended in complete assay media (DMEM F-12, 10% HI FBS, 100 μg/mL Normocin, 700 μg/mL Hygromycin B and 15 μg/mL Blasticidin) containing 1ug/ml doxycycline, plated in white 384 well plates (Corning, 3570) at a density of 750 cells/well (25 μl/ well) and cultured at 37 °C in an incubator overnight. For studies assessing basal and inverse agonist activity at human GPR61 mutants, CHO-K1 cells were transiently transfected using Fugene6, plated in white 384 well plates (7500 cells/well) and grown overnight at 37 °C, as described for receptor expression studies. […]

Question: `CCOc1cc(C)nc(N(CCOC)S(=O)(=O)c2ccc(NCc3c(F)cncc3F)nc2OC)n1` [Compound 1] was tested. Which IC50 (Human PDE7B) did it give?
Answer: 6270 nM

Question: What about the IC50 (Human PDE11A4) of the same compound?
Answer: > 40000 nM

Question: And the IC50 (human GPR61; Fig. 2d, HiBit-tagged WT, read-out: IC50, cAMP assay, Hibit-tagged GPR61)?
Answer: 10 nM

Question: What about the IC50 (human GPR61; Fig. 2d, untagged WT, read-out: IC50, cAMP assay, Untagged GPR61) of the same compound?
Answer: 11 nM

Question: And the “cAMP response (Figure 3e source data)” value (human GPR61; HiBit WT, concentration -7.5)?
Answer: 1.38 and 1.77 and 1.31 and 1.26 and 1.43 and 2.44

Question: What about the “cAMP response (Figure 3e source data)” value (human GPR61; HiBit WT, concentration -8) of the same compound?
Answer: 2.14 and 2.36 and 1.86 and 2.11 and 3.43

Question: And the “cAMP response (Figure 3e source data)” value (human GPR61; HiBit WT, concentration -10)?
Answer: 3.60 and 4.23 and 3.00 and 3.19 and 3.38 and 5.40

Question: And the “cAMP response (Figure 3e source data)” value (human GPR61; Untagged WT, concentration -8.5)?
Answer: 3.48 and 4.28 and 2.15 and 2.16 and 4.06 and 4.02

Question: What about the “cAMP response (Figure 3e source data)” value (human GPR61; Untagged WT, concentration -9) of the same compound?
Answer: 4.53 and 5.41 and 3.02 and 3.13 and 5.81 and 5.80

Question: What about the IC50 (human GPR61; wild-type GPR61, untagged and HiBit-tagged, read-out: IC50 in the functional cAMP assay) of the same compound?
Answer: 10 to 11 nM
